As usually defined, the Ki is the equilibrium dissociation constant of an inhibitor or competing ligand from its target. Low readings indicate a stronger hold on the target, high ones a looser hold on the target.

For the test, the target named is T1, N-terminally GST-tagged DLK (catalytic domain amino acid 1-520) (Homo sapiens, UniProt Q12852).
T1 construct: N-terminally GST-tagged DLK (catalytic domain amino acid 1-520); purchased Carna Bioscience
T1 sequence (Q12852 1-520): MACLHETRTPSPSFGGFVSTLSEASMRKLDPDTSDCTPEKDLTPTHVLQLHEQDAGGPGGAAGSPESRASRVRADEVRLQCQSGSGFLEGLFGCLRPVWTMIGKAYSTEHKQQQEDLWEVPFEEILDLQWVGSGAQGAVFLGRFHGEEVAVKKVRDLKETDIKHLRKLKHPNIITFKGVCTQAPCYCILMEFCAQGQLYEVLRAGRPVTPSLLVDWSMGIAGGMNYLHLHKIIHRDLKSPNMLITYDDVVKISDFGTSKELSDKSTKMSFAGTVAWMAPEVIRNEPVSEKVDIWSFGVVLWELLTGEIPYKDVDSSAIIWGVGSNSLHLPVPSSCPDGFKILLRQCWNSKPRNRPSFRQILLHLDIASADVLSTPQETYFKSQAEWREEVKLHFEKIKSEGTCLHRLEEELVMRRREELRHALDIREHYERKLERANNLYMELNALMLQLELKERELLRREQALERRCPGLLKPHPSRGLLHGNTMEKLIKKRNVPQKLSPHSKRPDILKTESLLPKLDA
Description: DLK TR-FRET inhibition assay. Format: biochemical. The settings on record: 5 nM GST-DLK, 40 nM HIS-MKK4 K131M substrate, 30 μM ATP, 60 minutes at ambient temperature. In short, it runs like this: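 5 nM GST-DLK (aa 1-520), 40 nM HIS-MKK4 K131M and 30 μM ATP reacted 60 min at ambient temperature in HEPES pH 7.5 buffer with 10 mM MgCl2, compound 1:3 serially diluted from 20 uM. TR-FRET detection of phospho-MKK4 used Eu-cryptate anti-phospho-MKK4 plus D2 anti-HIS, read after 3 h (665/615 nm).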
On the technique in general: TR-FRET usually uses a lanthanide donor and a delayed reading to cut background.
`CC(C)n1nc(-c2cnc(N)c(C(F)(F)F)c2)cc1[C@H]1[C@@H]2C[C@@H](N3CC4(COC4)C3)C[C@@H]21` [compound 51, 5-(5-((1R,3s,5S,6r)-3-(2-oxa-6-azaspiro[3.3]heptan-6-yl)bicyclo [3.1.0]hexan-6-yl)-1-isopropyl-1H-pyrazol-3-yl)-3-(trifluoro-methyl)pyridin-2-amine] yielded a Ki of 3.55 nM.
The result for `CC(C)n1nc(-c2cnc(N)c(OC(F)(F)F)c2)cc1[C@@H]1[C@@H]2C[C@H](N3CCOCC3)C[C@@H]21` [compound 125, 5-(1-isopropyl-5-((1R,3r,5S,6s)-3-morpholinobicyclo[3.1.0]hexan-6-yl)-1H-pyrazol-3-yl)-3-(trifluoro-methoxy)pyridin-2-amine] reads over 1600 nM; that for `CC(C)n1nc(-c2cnc(N)c(OC(F)F)c2)cc1[C@H]1[C@@H]2C[C@@H](N3CCCOCC3)C[C@@H]21` [compound 87, 5-(5-((1R,3s,5S,6r)-3-(1,4-oxazepan-4-yl)bicyclo[3.1.0]hexan-6-yl)-1-isopropyl-1H-pyrazol-3-yl)-3-(difluoromethoxy)pyridin-2-amine], 0.64 nM; that for `CC(C)n1nc(-c2cnc(N)c(OC(F)(F)F)c2)cc1[C@H]1[C@@H]2C[C@H](N(C)C3COC3)C[C@@H]21` [compound 47, 5-(1-isopropyl-5-((1R,3r,5S,6r)-3-(methyl(oxetan-3-yl)amino)bicyclo[3.1.0]hexan-6-yl)-1H-pyrazol-3-yl)-3-(trifluoromethoxy) pyridin-2-amine], 4.11 nM.
The value for `CC(C)n1nc(-c2cnc(N)c(OC(F)F)c2)cc1[C@H]1[C@@H]2CC(=O)C[C@@H]21` [compound 85, (1R,5S,6r)-6-(3-(6-amino-5-(difluoro-methoxy)pyridin-3-yl)-1-isopropyl-1H-pyrazol-5-yl)bicyclo [3.1.0]hexan-3-one] was 47.8 nM; that for `CC(C)n1nc(-c2cnc(N)c(C(F)(F)F)c2)cc1[C@H]1[C@@H]2C[C@@H](N(C)C3COC3)C[C@@H]21` [compound 50, 5-(1-isopropyl-5-((1R,3s,5S,6r)-3-(methyl(oxetan-3-yl)amino)bicyclo[3.1.0]hexan-6-yl)-1H-pyrazol-3-yl)-3-(trifluoromethyl) pyridin-2-amine] was 2.83 nM.
With `CC(C)n1nc(-c2cnc(N)c(C(F)(F)F)c2)cc1[C@@H]1[C@@H]2C[C@@H](N3CC(C#N)C3)C[C@@H]21` [compound 124, 1-((1R,3s,5S,6s)-6-(3-(6-amino-5-(trifluoromethyl)pyridin-3-yl)-1-isopropyl-1H-pyrazol-5-yl)bicyclo[3.1.0]hexan-3-yl) azetidine-3-carbonitrile], the inhibition constant (Ki) was over 1600 nM.
The result for `CC(C)n1nc(-c2cnc(N)c(OC(F)(F)F)c2)cc1[C@H]1[C@@H]2C[C@H](N3C[C@@H]4C[C@H]3CO4)C[C@@H]21` [compound 71, 5-(5-((1R,3r,5S,6S)-3-((1S,4S)-2-oxa-5-azabicyclo[2.2.1]heptan-5-yl)bicyclo[3.1.0]hexan-6-yl)-1-isopropyl-1H-pyrazol-3-yl)-3-(trifluoromethoxy)pyridin-2-amine] reads 3.62 nM; that for `Nc1ncc(-c2cc([C@H]3[C@@H]4C[C@H](N5CCOCC5)C[C@@H]43)n(CC3CC3)n2)cc1C(F)(F)F` [compound 273, 5-(1-(cyclopropylmethyl)-5-((1R,3r,5S,6r)-3-morpholinobicyclo [3.1.0]hexan-6-yl)-1H-pyrazol-3-yl)-3-(trifluoromethyl)pyridin-2-amine], 1.3 nM; that for `CC(C)n1nc(-c2cnc(N)c(C(F)(F)F)c2)cc1[C@H]1[C@@H]2C[C@H](NCC(F)F)C[C@@H]21` [compound 253, 5-(5-((1R,3r,5S,6r)-3-((2,2-difluoroethyl)amino)bicyclo[3.1.0]hexan-6-yl)-1-isopropyl-1H-pyrazol-3-yl)-3-(trifluoromethyl) pyridin-2-amine], 3.4 nM.
The compound `Nc1ncc(-c2cc([C@H]3[C@@H]4C[C@@H](N5CCOCC5)C[C@@H]43)n(CC(F)F)n2)cc1C(F)(F)F` [compound 293, 5-(1-(2,2-difluoroethyl)-5-((1R,3s,5S,6r)-3-morpholinobicyclo [3.1.0]hexan-6-yl)-1H-pyrazol-3-yl)-3-(trifluoromethyl)pyridin-2-amine] gave an inhibition constant Ki of 3 nM.
The value for `CC(C)n1nc(-c2cnc(N)c(OC(F)F)c2)cc1[C@H]1[C@@H]2C[C@H](N3CC(F)(F)C3)C[C@@H]21` [compound 43, 5-(5-((1R,3r,5S,6r)-3-(3,3-difluoro-azetidin-1-yl)bicyclo[3.1.0]hexan-6-yl)-1-isopropyl-1H-pyrazol-3-yl)-3-(difluoromethoxy) pyridin-2-amine] was 3.05 nM.
The value for `Nc1ncc(-c2cc([C@H]3[C@@H]4C[C@@H](N5CCOCC5)C[C@@H]43)n(CC(F)F)n2)cc1OC(F)F` [compound 160, 5-(1-(2,2-difluoroethyl)-5-((1R,3s,5S,6r)-3-morpholinobicyclo [3.1.0]hexan-6-yl)-1H-pyrazol-3-yl)-3-(difluoromethoxy) pyridin-2-amine] was 2.4 nM; that for `COC1CCN([C@H]2C[C@@H]3[C@H](C2)[C@H]3c2cc(-c3cnc(N)c(OC(F)F)c3)nn2C(C)C)C1` (stereo partly drawn) [compound 73, 3-(difluoromethoxy)-5-(1-isopropyl-5-((lR,3r,5S,6r)-3-(3-methoxy-pyrrolidin-1-yl)bicyclo[3.1.0]hexan-6-yl)-1H-pyrazol-3-yl) pyridin-2-amine] was 1.81 nM.
The compound `CC(C)n1nc(-c2cnc(N)c(C(=O)N3CCCC3)c2)cc1[C@H]1[C@@H]2C[C@H](N3CC(F)C3)C[C@@H]21` [compound 107, (2-amino-5-(5-((1R,3r,5S,6r)-3-(3-fluoroazetidin-1-yl)bicyclo [3.1.0]hexan-6-yl)-1-isopropyl-1H-pyrazol-3-yl)pyridin-3-yl) (pyrrolidin-1-yl)methanone] registered a Ki of over 321 nM.
The value for `CC(C)n1nc(-c2cnc(N)c(C(F)(F)F)c2)cc1[C@H]1[C@@H]2C[C@H](N3CCOC[C@H]3C)C[C@@H]21` [compound 45, 5-(1-isopropyl-5-((1R,3r,5S,6R)-3-((R)-3-methylmorpholino)bicyclo[3.1.0]hexan-6-yl)-1H-pyrazol-3-yl)-3-(trifluoromethyl) pyridin-2-amine] was 3.3 nM.
The result for `CC(C)n1nc(-c2cnc(N)c(OC(F)F)c2)cc1C1[C@H]2CC(N3CCOCC(F)C3)C[C@@H]12` (single isomer, unassigned) [compound 172] reads 4.2 nM.
The result for `CC(C)n1nc(-c2cnc(N)c(OCC(F)(F)F)c2)cc1[C@H]1[C@@H]2C[C@@H](N3CCOCC3)C[C@@H]21` [compound 96, 5-(1-isopropyl-5-((1R,3s,5S,6r)-3-morpholinobicyclo[3.1.0]hexan-6-yl)-1H-pyrazol-3-yl)-3-(2,2,2-trifluoroethoxy)pyridin-2-amine] reads 19 nM; that for `CC(C)n1nc(-c2cnc(N)c(OC(F)(F)F)c2)cc1[C@H]1[C@@H]2C[C@@H](N3CCCN(C)CC3)C[C@@H]21` [compound 203, 5-(1-isopropyl-5-((1R,3s,5S,6r)-3-(4-methyl-1,4-diazepan-1-yl)bicyclo[3.1.0]hexan-6-yl)-1H-pyrazol-3-yl)-3-(trifluoromethoxy) pyridin-2-amine], 0.9 nM.
Compound `COCCN1CC[C@@]12C[C@@H]1[C@H](C2)[C@H]1c1cc(-c2cnc(N)c(OC(F)(F)F)c2)nn1C(C)C` [compound 146, 5-(1-isopropyl-5-((1′R,2r,5′S,6′r)-1-(2-methoxyethyl)spiro[azetidine-2,3′-bicyclo[3.1.0]hexan]-6-yl)-1H-pyrazol-3-yl)-3-(trifluoro-methoxy)pyridin-2-amine] displayed an inhibition constant Ki of 4.3 nM.
For `CO[C@@H]1CCN([C@@H]2C[C@@H]3[C@H](C2)[C@H]3c2cc(-c3cnc(N)c(OC(F)F)c3)nn2C(C)C)C1` [compound 194, 3-(difluoromethoxy)-5-(1-isopropyl-5-((1R,3s,5S,6R)-3-((R)-3-methoxypyrrolidin-1-yl)bicyclo [3.1.0]hcxan-6-yl)-1 H-pyrazol-3-yl)pyridin-2-amine], the Ki is 2 nM.
In turn, “5-(1-isopropyl-5-((1R,3r,5S,6R)- 3-((R)-2-methylmorpholino) bicyclo[3.1.0]hexan-6-yl)-1H- pyrazol-3-yl)-3-(trifluoromethyl) pyridin-2-amine [compound 2]” displayed a Ki of 2.06 nM. This Ki and that of the compound before are within 1.5-fold of each other.
In the case of `CC(C)n1nc(-c2cnc(N)c(C(F)(F)F)c2)cc1[C@H]1[C@@H]2CC(N3CCN4CCOCC4C3)C[C@@H]21` (single isomer, unassigned) [compound 196], the Ki stood at 3.4 nM.
`CC(C)n1nc(-c2cnc(N)c(OC(F)(F)F)c2)cc1[C@H]1[C@@H]2C[C@H](N3CCN(C)CC3)C[C@@H]21` [compound 64, 5-(1-isopropyl-5-((1R,3r,5S,6r)-3-(4-methylpiperazin-1-yl)bicyclo [3.1.0]hexan-6-yl)-1H-pyrazol-3-yl)-3-(trifluoromethoxy) pyridin-2-amine] returned a Ki of 0.763 nM. This Ki is about 4.5-fold lower than that of the compound before.

These data come from patent US9365583B2, “Substituted pyrazoles and uses thereof” (Genentech, Inc., priority 2013, dated 2016).
